Structures are written as SMILES.

The nature of this data set: in vitro. The settings on record: human, hela cells, % viability.
Consider `Cc1ccc(NC(=O)CC(C(=O)O)N(C)C)cc1` (centres unmarked) [CBK267068], for which the viability at 28.5 h, 10 µM turned out to be 81.7%.

Take `Cc1nn(C)cc1CN1CCN(C(=S)NCCc2ccccc2)CC1` [CBK267069]: the viability at 28.5 h, 10 µM amounted to 98.4%.

`CCOC(=O)c1c(NC(=S)N2CCN(S(C)(=O)=O)CC2)sc(C)c1-c1ccccc1` [CBK267072]: the viability at 28.5 h, 10 µM was found to be 98%.

With `COC(=O)c1c(NC(=S)NNC(=O)c2nn(C)cc2I)sc2c1CCC2` [CBK267074], the viability at 28.5 h, 10 µM came to 97.7%.

As for `O=S(=O)(c1ccc(Cl)cc1)N1CCN(S(=O)(=O)N2CCCCC2)CC1` [CBK267075], the viability at 28.5 h, 10 µM was determined as 96.1%.

As for `Cc1cc(C)nc(Nc2n[nH]c(-c3ccc(NC(=O)Nc4ccccc4)cc3)n2)n1` [CBK267076], the viability at 28.5 h, 10 µM stood at 92.7%.

Regarding `Cc1cc(CNC(=S)Nc2ccc(S(N)(=O)=O)cc2)nn1C` [CBK267077], the viability at 28.5 h, 10 µM was 98.7%.

Consider `COC(=O)c1sc(NC(=S)Nc2ccn(C)n2)c(C(=O)OC)c1C` [CBK267078], for which the viability at 28.5 h, 10 µM was 99.5%.

As for `Cc1[nH]c2ccc(C(=O)O)cc2c1CC(=O)O` [CBK267080], the viability at 28.5 h, 10 µM was found to be 96.3%.

Turning to `Cc1cc(C)c(S(=O)(=O)NC(CC(=O)O)c2ccccc2)cc1C` (centres unmarked) [CBK267081], the viability at 28.5 h, 10 µM amounted to 86.8%.

Take `S=C(NCc1ccc(-n2cccn2)cc1)NCC1CCCO1` (centres unmarked) [CBK267083]: the viability at 28.5 h, 10 µM is 96.7%.

As for `Cc1ccc([N+](=O)[O-])cc1/C=C(/C#N)c1nc2ccccc2s1` [CBK267085], the viability at 28.5 h, 10 µM turned out to be 95.4%.

Turning to `O=C(CC(C(=O)O)N1CCOCC1)Nc1ccc(Cl)cc1` (centres unmarked) [CBK267086], the viability at 28.5 h, 10 µM was 105%.

Turning to `Cc1cc(C)cc(C(=O)NC(=S)Nc2sc(C)c(C)c2C#N)c1` [CBK267089], the viability at 28.5 h, 10 µM worked out at 92.1%.

As for `COC(=O)c1c(NC(=S)NCc2ccccn2)sc2c1CCC2` [CBK267090], the viability at 28.5 h, 10 µM was 95.9%.

For the compound `COC(=O)c1cc(C)sc1NC(=S)Nc1cnn(Cc2cccc3ccccc23)c1` [CBK267098], the viability at 28.5 h, 10 µM is 101%.

As for `CCc1c(C)c2cc(Cl)c(O)c(CN3CCCC3)c2oc1=O` [CBK267099], the viability at 28.5 h, 10 µM is 105%.

With `COC(=O)c1c(NC(=S)N2CCN(Cc3c(C)nn(C)c3C)CC2)sc2c1CCC(C)C2` (centres unmarked) [CBK267103], the viability at 28.5 h, 10 µM was determined as 94.9%.

For the compound `CC(C)(C)OC(=O)NNC(=S)Nc1ccc(S(N)(=O)=O)cc1` [CBK267107], the viability at 28.5 h, 10 µM was found to be 100%.

As to `Cc1ccccc1C(=O)Nc1cccc(NC(=O)c2nc[nH]n2)c1` [CBK267108], the viability at 28.5 h, 10 µM turned out to be 86.6%.

Consider `c1ccc2c(c1)nc(-c1cscn1)n2CCCCc1nnn[nH]1` [CBK267110], for which the viability at 28.5 h, 10 µM worked out at 93.7%.

Turning to `Cc1ccc2oc(-c3cc(NC(=O)Cn4cnc5c(=O)n(C)c(=O)n(C)c54)ccc3O)nc2c1` [CBK267112], the viability at 28.5 h, 10 µM came to 95.1%.

For the compound `CCn1cc(C(=O)O)c(=O)c2cnc(N3CCN(C(=S)NC(=O)C4c5ccccc5Oc5ccccc54)CC3)nc21` [CBK267114], the viability at 28.5 h, 10 µM turned out to be 91.6%.

On to `COc1ccc(NC(=O)CC(C(=O)O)N2CCCCC2)cc1` (centres unmarked) [CBK267115], for which the viability at 28.5 h, 10 µM was 101%.

For the compound `O=C(O)CC(NCc1ccccc1)C(=O)Nc1ccccc1Br` (centres unmarked) [CBK267118], the viability at 28.5 h, 10 µM stood at 98%.

Consider `Cc1ccc(C)c(NC(=O)CC2C(=O)N(c3ccccc3)C(=S)N2Cc2ccco2)c1` (centres unmarked) [CBK267119], for which the viability at 28.5 h, 10 µM is 94.3%.

For `Cc1cc(C)nc(Nc2n[nH]c(-c3cccnc3)n2)n1` [CBK267120], the viability at 28.5 h, 10 µM worked out at 98%.

Consider `Cc1nn(Cc2c(F)cccc2Cl)c(C)c1NC(=S)Nc1ccc(S(N)(=O)=O)cc1` [CBK267121], for which the viability at 28.5 h, 10 µM was 101%.

Take `CC(=O)Nc1ccc(S(=O)(=O)NCc2ccc3[nH]c4c(c3c2)CCCC4)cc1` [CBK267122]: the viability at 28.5 h, 10 µM was determined as 87.1%.

For `O=C(Oc1ccc(N(C(=O)c2ccncc2)S(=O)(=O)c2cccc3cccnc23)cc1)c1ccncc1` [CBK267123], the viability at 28.5 h, 10 µM worked out at 89.5%.

Regarding `CC(C)N(Cc1nc(-c2ccc(Cl)cc2)no1)C(=O)COc1ccc(Br)cc1Cl` [CBK267126], the viability at 28.5 h, 10 µM was 111%.

For `O=C(O)CSc1nc2ccccc2n1CC(=O)O` [CBK267128], the viability at 28.5 h, 10 µM turned out to be 102%.

`FC(F)(F)c1ccccc1NC(=S)Nc1ncn(Cc2ccc(Cl)c(Cl)c2)n1` [CBK267130]: the viability at 28.5 h, 10 µM stood at 87.1%.

As to `Cc1cc(C)nc(Nc2n[nH]c(-c3ccc(N)cc3)n2)n1` [CBK267131], the viability at 28.5 h, 10 µM stood at 99.5%.

Turning to `CCN1CCN(C(=O)c2ccc(CN(c3ccc(C)c(C)c3)S(C)(=O)=O)cc2)CC1` [CBK267132], the viability at 28.5 h, 10 µM came to 92.6%.

As to `Cc1nn2c(-c3ccc(NC(=O)c4cccs4)cc3)nnc2c2ccccc12` [CBK267134], the viability at 28.5 h, 10 µM was 89.6%.

Consider `CCn1c2ccccc2n2c(SCCC(=O)O)nnc12` [CBK267135], for which the viability at 28.5 h, 10 µM was determined as 102%.

For `O=C(CN(c1ccccc1)S(=O)(=O)c1ccccc1[N+](=O)[O-])Nc1ccc(C(F)(F)F)cc1` [CBK267137], the viability at 28.5 h, 10 µM came out at 64.6%.

On to `Cc1cc(=O)oc2cc(NC(=S)NNC(=O)c3ccc4c(c3)c(C)c(C)n4Cc3ccccc3)ccc12` [CBK267138], for which the viability at 28.5 h, 10 µM turned out to be 89.6%.

In the case of `CCOc1ccccc1NC(=O)Nc1ncccc1C` [CBK267140], the viability at 28.5 h, 10 µM turned out to be 85.3%.

`O=C(O)CC(NCc1ccccc1)C(=O)Nc1ccc(Cl)cc1` (centres unmarked) [CBK267141]: the viability at 28.5 h, 10 µM is 95.4%.

With `CC(C)(O)C#Cc1ccc(C(=O)NCCCNC(=O)c2ccc(C#CC(C)(C)O)s2)s1` [CBK267142], the viability at 28.5 h, 10 µM was found to be 93.8%.

Regarding `CCn1c(COc2cccc(C)c2)nnc1SCC(=O)c1ccccc1` [CBK267143], the viability at 28.5 h, 10 µM turned out to be 97.4%.

As to `CSc1nnc(Cc2nnc(SC)n2-c2ccccc2)n1-c1ccccc1` [CBK267145], the viability at 28.5 h, 10 µM stood at 105%.

In the case of `Cc1cccnc1Nc1nc(-c2sc(N)nc2C)cs1` [CBK267147], the viability at 28.5 h, 10 µM amounted to 90.3%.

Consider `CCn1c(SCC(=O)NC2CCCCC2C)nnc1-c1cc2cccc(OC)c2o1` (centres unmarked) [CBK267148], for which the viability at 28.5 h, 10 µM was found to be 89.5%.

As to `O=C(Nc1ccccc1Cl)c1ccc(NCCN2C(=O)c3ccccc3C2=O)c([N+](=O)[O-])c1` [CBK267149], the viability at 28.5 h, 10 µM worked out at 95.8%.

Take `Cc1cc(Br)cc(C)c1OCC(=O)NNC(=O)Cc1cccc2ccccc12` [CBK267151]: the viability at 28.5 h, 10 µM is 95.2%.

As for `CCn1c(S)nnc1CNC(=O)c1ccc(Cl)cc1Cl` [CBK267152], the viability at 28.5 h, 10 µM worked out at 94.3%.

On to `Cc1cccc(OCc2nnc(SCC(=O)Nc3cccc4ccccc34)o2)c1C` [CBK267153], for which the viability at 28.5 h, 10 µM is 108%.

For the compound `COc1c(C)cc(Br)cc1C(=O)Nc1ccccc1-c1nc2ccccc2s1` [CBK267155], the viability at 28.5 h, 10 µM is 99.8%.

For the compound `Cc1cccc(C)c1NC(=O)CCC(=O)OCc1ccccc1` [CBK267158], the viability at 28.5 h, 10 µM was found to be 102%.

As to `Cc1ccc(NC(=O)c2cc([N+](=O)[O-])ccc2NCCN2C(=O)c3ccccc3C2=O)cc1` [CBK267159], the viability at 28.5 h, 10 µM was determined as 87.5%.

With `COc1ccc(S(=O)(=O)N2CCC(C(=O)O)CC2)cc1Cl` [CBK267162], the viability at 28.5 h, 10 µM amounted to 94.9%.

Regarding `O=C(CC1NC(=O)NC1=O)Nc1cccc2ccccc12` (centres unmarked) [CBK267164], the viability at 28.5 h, 10 µM was found to be 90.3%.

On to `NC(=O)C1(N2CCCCC2)CCN(C(=S)Nc2ccc(F)c(Cl)c2)CC1` [CBK267165], for which the viability at 28.5 h, 10 µM was 97.4%.

Consider `COc1cc(/C=C/c2nc(O)c([N+](=O)[O-])c(=O)[nH]2)ccc1OCC(=O)N1CCOCC1` [CBK267168], for which the viability at 28.5 h, 10 µM came out at 96.8%.

With `COc1ccc(Nc2nc(-c3sc(C)nc3C)cs2)c(OC)c1` [CBK267170], the viability at 28.5 h, 10 µM stood at 46.5%.

In the case of `Nc1ccc(-c2nnc(SCC(=O)Nc3ccc(Br)cc3F)n2-c2ccccc2)cc1` [CBK267175], the viability at 28.5 h, 10 µM is 98.8%.

As to `COc1ccc(S(=O)(=O)N(C)CC(=O)O)cc1C` [CBK267176], the viability at 28.5 h, 10 µM worked out at 108%.

Take `O=c1oc2cc(S(=O)(=O)NCc3ccco3)ccc2c2ccc(S(=O)(=O)NCc3ccco3)cc12` [CBK267177]: the viability at 28.5 h, 10 µM is 96.5%.

Take `O=C(CNS(=O)(=O)c1cccc(Cl)c1)Nc1ccc(-c2nc3ccccc3s2)cc1` [CBK267178]: the viability at 28.5 h, 10 µM stood at 97.5%.

Regarding `CCCOc1ccccc1-c1nnc(SCCC(=O)O)[nH]1` [CBK267182], the viability at 28.5 h, 10 µM stood at 93.9%.

As for `COC(=O)c1sccc1NC(=O)Cn1nnc(-c2ccc(C)cc2)n1` [CBK267183], the viability at 28.5 h, 10 µM turned out to be 98.4%.

Turning to `c1ccc(-c2csc(Nc3cccnc3)n2)nc1` [CBK267184], the viability at 28.5 h, 10 µM was found to be 107%.

As for `O=C(CSc1nnc(COc2ccccc2)o1)N1CCN(c2ccccc2)CC1` [CBK267185], the viability at 28.5 h, 10 µM was 97.5%.

As to `Nc1ncnc(NNC(=O)CNC(=O)c2ccccc2C(F)(F)F)c1[N+](=O)[O-]` [CBK267186], the viability at 28.5 h, 10 µM was 94.1%.

On to `COC(=O)c1ccc(N2C(=O)CC(SCCc3nc4ccccc4[nH]3)C2=O)cc1` (centres unmarked) [CBK267188], for which the viability at 28.5 h, 10 µM turned out to be 88.5%.

Consider `Cc1ccc2oc3c(c(=O)c2c1)C(c1ccc(OCC(N)=O)cc1)N(Cc1ccc2c(c1)OCO2)C3=O` (centres unmarked) [CBK267189], for which the viability at 28.5 h, 10 µM is 91.3%.

For `O=C(CN1CCNCC1)Nc1ccc(Oc2ccccc2)cc1` [CBK267191C], the viability at 28.5 h, 10 µM came out at 102%.

`COc1ccc(Cl)cc1NC(=S)NCCc1ccc(S(N)(=O)=O)cc1` [CBK267198]: the viability at 28.5 h, 10 µM is 85.6%.

On to `Nc1c(C(=O)NCc2ccccc2)c2nc3ccccc3nc2n1CCO` [CBK267201], for which the viability at 28.5 h, 10 µM came out at 108%.

Turning to `CCOc1ccccc1-n1c(CN2CCN(C(=O)c3ccco3)CC2)nc2ccccc2c1=O` [CBK267203], the viability at 28.5 h, 10 µM is 86.4%.

For the compound `Cc1cccc(OCc2nnc(SCC(=O)Nc3cc(C(F)(F)F)ccc3Cl)o2)c1C` [CBK267204], the viability at 28.5 h, 10 µM was found to be 85.3%.

Regarding `CC1(C)Cc2nc(-c3ccccc3)nc(SCC(=O)NCCc3ccccc3)c2CO1` [CBK267205], the viability at 28.5 h, 10 µM was 86.7%.

Regarding `O=C(c1ccco1)N1CCN(c2ncnc3scc(-c4cccs4)c23)CC1` [CBK267208], the viability at 28.5 h, 10 µM stood at 110%.

For the compound `O=C(Nc1ccc(N2CCN(Cc3ccccc3F)CC2)cc1)c1cc2ccccc2o1` [CBK267210], the viability at 28.5 h, 10 µM was found to be 87.4%.

As usually defined, the viability is a read-out of living cells in per cent, often relative to untreated cells.

The values above are taken from paper PMC12040169 (PLOS Biology, 2025).
